From patent publication US6924298B2, “2-(3,5-Disubstituted-4-pyridyl)-4-(thienyl, thiazolyl or arylphenyl)-1,3-oxazoline compounds” (Dow AgroSciences LLC, priority 2000, dated 2005)
Read-outs that look alike come from different tables or passages of the source.

Columns and labels:
Type in all cases: in vivo
[1] = system: cabbage looper (Trichoplusia ni); experiment: Insecticidal test for cabbage looper, treated cabbage leaf disc; conditions: Trichoplusia ni, foliar, 120 h, read-out: CL: activity at 400 ppm against cabbage looper (% Control rating)
Method: (§1) Insecticidal Test for Tobacco Budworm (Heliothis virescens), Beet Armyworm (Spodoptera exigua), and Cabbage Looper (Trichoplusia ni).
(§2) To prepare the test solution, the test compound was formulated at 400 ppm in 7.5 mL of 2 acetone:1 tap water. 250 μL of the test solution was pipetted upon the surface of 8 mL of lepidopteran diet (modified Shorey) contained in each of five one-ounce plastic cups (one cup=1 replication). A second-instar beet armyworm was placed upon the treated diet in each cup once the solvent had air-dried. The solutions remaining after completing applications to the one-ounce cups were then used as leaf-dip solutions for 3.5 cm leaf discs cut from cabbage leaves and cotton cotyledons. Five discs of each type of plant were dipped until thoroughly coated into each rate of each compound (=5 replications of each treatment). After air-drying, the treated leaf discs were placed individually into one-ounce plastic cups. Each dried, treated cotton cotyledon disc was infested with a 2nd instar tobacco budworm larva, and each cabbage leaf disc was infested with a 2nd instar cabbage looper larva. Cups containing the treated substrates and larvae were capped and then held in a growth chamber at 25° C., 50-55% RH, and 14 hr light: 10 hr dark for 5 days.

[2] = system: cotton aphid (Aphis gossypii); experiment: Insecticidal test for cotton aphid, spray on infested squash cotyledons; conditions: Aphis gossypii, 72 h, read-out: CA: activity at 50 ppm against cotton aphid (% Control rating)
Method: Insecticidal Test for Cotton Aphid (Aphis gossypii)
To prepare spray solutions, 1 mg of each test compound was dissolved into 1 mL of a 90:10 acetone:ethanol solvent. This 1 mL of chemical solution was added to 19 mL of water containing 0.05% Tween 20 surfactant to produce a 50 ppm spray solution.
Squash cotyledons were infested with cotton aphid (all life stages)16-20 hours prior to application of spray solution. The solution was sprayed on both sides of each infested squash cotyledon (0.5 mL×2 each side) with a sweeping action until runoff. The plants were allowed to air dry and held for 3 days in a controlled room at 26° C. and 40% RH after which time the test was graded. Grading was by actual count using a dissecting microscope and comparison of test counts to the untreated check. Results are given in Tables 1-4 as percent control based on population reduction versus the untreated.

[3] = system: beet armyworm (Spodoptera exigua); experiment: Insecticidal test for beet armyworm, treated lepidopteran diet; conditions: Spodoptera exigua, 120 h, read-out: BAW: activity at 400 ppm against beet armyworm (% Control rating)
Method: as §1, §2

[4] = system: two-spotted spider mite (Tetranychus urticae); experiment: Insecticidal test for two-spotted spider mite, ovicide method on cotton leaf discs; conditions: Tetranychus urticae, foliar, 144 h, hatched larvae after 6 days, read-out: SM: activity against two-spotted spider mite (% Control rating)
Method: Insecticidal Test for Two-Spotted Spider Mite (Tetranychus urticae) Ovicide Method: Ten adult female two-spotted spider mites were placed on eight 2.2 cm leaf discs of cotton leaf, allowed to oviposit over 24 hours, and thereafter removed. […] Discs were placed on an agar substrate and held at 24° C. and 90% RH for 6 days.

[5] = system: sweetpotato whitefly (Bemisia tabacia); experiment: Insecticidal test for sweetpotato whitefly, spray on cotton plants; conditions: 312 h, 200 ppm spray, large nymphs counted after 13 days, read-out: WF: activity at 200 ppm against whitefly (% Control rating)
Method: Insecticidal Test for Sweetpotato Whitefly (Bemisia tabacia)
Four mg of each test compound was dissolved by adding 4 mL of a 90:10 acetone:ethanol solvent mixture to the vial containing the sample compound. This solution was added to 16 mL of water containing 0.05% Tween 20 surfactant to produce 20 mL of a 200 ppm spray solution.
Five-week-old cotton plants reared in a greenhouse were stripped of all foliage except for the two uppermost true leaves that were greater than 5 cm in diameter.
These plants were then placed into a laboratory colony of whiteflies for two days for oviposition by the colony females. All whiteflies were then removed from the test plants with pressurized air. The spray solution was then applied to the test plants with a hand-held syringe fitted with hollow cone nozzle. One mL of spray solution was applied to each leaf top and bottom for a total of 4 mL per plant. Four replications of each test compound utilized a total of 16 mL spray solution. Plants were air dried and then placed in a holding chamber (28° C. and 60% RH) for 13 days. Compound efficacy was evaluated by counting, under an illuminated magnifying glass, the number of large nymphs (3rd-4th instar) per leaf.
Percent control based on reduction of large nymphs of a test compound compared to solution-only (no test compound) sprayed plants is reported in Tables 1-4.

[6] = 400 ppm, leaf-dip cabbage leaf disc, 2nd instar larvae, 5 days
[7] = 50 ppm spray, squash cotyledons, all life stages, 3 days
[8] = 400 ppm, treated diet surface, second-instar larvae, 5 days

FC(F)(F)c1cccc(-c2ccc(C3COC(c4c(Cl)cncc4Cl)=N3)cc2)c1 (stereo not drawn) [Compound 15]
pest or weed control at 400 ppm [1, 6]: 90 to 100%
pest or weed control at 50 ppm [2, 7]: < 50%
pest or weed control at 400 ppm [3, 8]: 90 to 100%
pest or weed control [4]: < 50%

Fc1ccccc1-c1ccc(C2COC(c3c(Cl)cncc3Cl)=N2)cc1 (stereo not drawn) [Compound 23]
pest or weed control at 400 ppm [1, 6]: 90 to 100%
pest or weed control at 50 ppm [2, 7]: 90 to 100%
pest or weed control at 400 ppm [3, 8]: 60 to 69%
pest or weed control [4]: 90 to 100%

C[C@H]1OC(c2c(Cl)cncc2Cl)=N[C@H]1c1ccc(I)cc1 [Compound 45, 4-[4-(4′-Iodophenyl)-5-methyl-4,5-dihydro-oxazol-2-yl]-3,5-dichloropyridines]
pest or weed control at 50 ppm [2, 7]: 90 to 100%

CCOc1ccc(-c2ccc(C3COC(c4c(Cl)cncc4Cl)=N3)c(C)c2)cc1 (stereo not drawn) [Compound 42]
pest or weed control at 400 ppm [1, 6]: 80 to 89%
pest or weed control at 50 ppm [2, 7]: 80 to 89%
pest or weed control at 400 ppm [3, 8]: 90 to 100%
pest or weed control [4]: 90 to 100%

FC(F)(F)c1ccccc1-c1ccc(C2COC(c3c(Cl)cncc3Cl)=N2)cc1 (stereo not drawn) [Compound 22]
pest or weed control at 50 ppm [2, 7]: 70 to 79%

Clc1cncc(Cl)c1C1=NC(c2ccccc2)CO1 (stereo not drawn) [Compound 1]
pest or weed control at 200 ppm [5]: < 50%
pest or weed control at 50 ppm [2, 7]: < 50%

COc1ccc(-c2ccc(C3COC(c4c(Cl)cncc4Cl)=N3)cc2)cn1 (stereo not drawn) [Compound 7]
pest or weed control at 400 ppm [1, 6]: 80 to 89%
pest or weed control at 400 ppm [3, 8]: 60 to 69%
pest or weed control [4]: 90 to 100%

Cc1ccc(-c2ccc(C3COC(c4c(Cl)cncc4Cl)=N3)cc2)cc1C (stereo not drawn) [Compound 8]
pest or weed control at 400 ppm [1]: 80 to 89%
pest or weed control at 50 ppm [2]: 80 to 89%
pest or weed control at 400 ppm [3]: 90 to 100%

Cc1cc(Br)ccc1C1COC(c2c(Cl)cncc2Cl)=N1 (stereo not drawn) [Compound 41, 4-[4-(4-bromo-2-methylphenyl)-4,5-dihydro-1,3-oxazol-2-yl]-3,5-dichloropyridine]
pest or weed control at 200 ppm [5]: < 50%
pest or weed control at 50 ppm [2, 7]: 90 to 100%
pest or weed control [4]: < 50%

Fc1cncc(F)c1C1=NC(c2ccc(-c3ccc(OC(F)(F)F)cc3)cc2)CO1 (stereo not drawn) [Compound 40]
pest or weed control at 400 ppm [1, 6]: 90 to 100%
pest or weed control at 50 ppm [2, 7]: < 50%
pest or weed control at 400 ppm [3, 8]: 90 to 100%
pest or weed control [4]: 90 to 100%

Cc1ccccc1-c1ccc(C2COC(c3c(Cl)cncc3Cl)=N2)cc1 (stereo not drawn) [Compound 25]
pest or weed control at 400 ppm [1, 6]: < 50%
pest or weed control at 50 ppm [2, 7]: 80 to 89%
pest or weed control at 400 ppm [3, 8]: 90 to 100%

Clc1cncc(Cl)c1C1=NC(c2ccc(-c3ccc4c(c3)OCO4)cc2)CO1 (stereo not drawn) [Compound 13]
pest or weed control at 400 ppm [1, 6]: 90 to 100%
pest or weed control at 50 ppm [2, 7]: 80 to 89%
pest or weed control at 400 ppm [3, 8]: 60 to 69%
pest or weed control [4]: < 50%

FCSc1ccc(-c2ccc(C3COC(c4c(Cl)cncc4Cl)=N3)cc2)cc1 (stereo not drawn) [Compound 37]
pest or weed control at 400 ppm [1, 6]: 60 to 69%
pest or weed control at 50 ppm [2, 7]: 90 to 100%
pest or weed control [4]: < 50%

Cc1ccc(-c2ccc(C3COC(c4c(Cl)cncc4Cl)=N3)cc2)cc1F (stereo not drawn) [Compound 26]
pest or weed control at 400 ppm [1, 6]: 60 to 69%
pest or weed control at 50 ppm [2, 7]: 60 to 69%
pest or weed control at 400 ppm [3, 8]: 60 to 69%

Cc1ccc(-c2ccc(C3COC(c4c(Cl)cncc4Cl)=N3)cc2)c(F)c1 (stereo not drawn) [Compound 33]
pest or weed control at 50 ppm [2, 7]: < 50%
pest or weed control at 400 ppm [3, 8]: 80 to 89%

Clc1ccc(C2COC(c3c(Cl)cncc3Cl)=N2)cc1 (stereo not drawn) [Compound 2]
pest or weed control at 200 ppm [5]: < 50%
pest or weed control at 50 ppm [2, 7]: 90 to 100%
pest or weed control [4]: < 50%

FC(F)(F)c1cc(-c2ccc(C3COC(c4c(Cl)cncc4Cl)=N3)cc2)cc(C(F)(F)F)c1 (stereo not drawn) [Compound 24]
pest or weed control at 200 ppm [5]: < 50%
pest or weed control at 50 ppm [2, 7]: < 50%
pest or weed control at 400 ppm [3, 8]: 90 to 100%

Clc1ccccc1-c1ccc(C2COC(c3c(Cl)cncc3Cl)=N2)cc1 (stereo not drawn) [Compound 18]
pest or weed control at 400 ppm [1, 6]: 80 to 89%
pest or weed control at 50 ppm [2, 7]: 50 to 59%
pest or weed control [4]: < 50%

Cc1ccc(-c2ccc(C3COC(c4c(Cl)cncc4Cl)=N3)cc2)cc1 (stereo not drawn) [Compound 9]
pest or weed control at 50 ppm [2]: 90 to 100%
pest or weed control at 400 ppm [3]: 90 to 100%

Clc1cccc(-c2ccc(C3COC(c4c(Cl)cncc4Cl)=N3)cc2)c1 (stereo not drawn) [Compound 20]
pest or weed control at 400 ppm [1]: 90 to 100%
pest or weed control at 50 ppm [2]: < 50%

Clc1cncc(Cl)c1C1=NC(c2ccc(Br)cc2)CO1 (stereo not drawn) [Compound 4, 2-(3,5-dichloro-4-pyridinyl)-4-(4-bromophenyl)oxazoline]
pest or weed control at 50 ppm [2, 7]: 90 to 100%
pest or weed control [4]: 90 to 100%

C[C@@H]1OC(c2c(Cl)cncc2Cl)=N[C@H]1c1ccc(I)cc1 [Compound 46, 4-[4-(4′-Iodophenyl)-5-methyl-4,5-dihydro-oxazol-2-yl]-3,5-dichloropyridines]
pest or weed control at 50 ppm [2, 7]: < 50%
pest or weed control [4]: < 50%

Clc1cncc(Cl)c1C1=NC(c2ccc(-c3ccccc3)cc2)CO1 (stereo not drawn) [Compound 28]
pest or weed control at 50 ppm [2, 7]: < 50%
pest or weed control at 400 ppm [3, 8]: 80 to 89%
pest or weed control [4]: 90 to 100%

Cc1ccc(-c2ccc(C3COC(c4c(Cl)cncc4Cl)=N3)cc2)s1 (stereo not drawn) [Compound 10]
pest or weed control at 400 ppm [1]: 90 to 100%
pest or weed control at 50 ppm [2]: 60 to 69%
pest or weed control at 400 ppm [3]: 80 to 89%

Fc1ccc(-c2ccc(C3COC(c4c(Cl)cncc4Cl)=N3)cc2)cc1F (stereo not drawn) [Compound 14]
pest or weed control at 50 ppm [2, 7]: 60 to 69%
pest or weed control at 400 ppm [3, 8]: 80 to 89%
pest or weed control [4]: 90 to 100%

CSc1ccc(-c2ccc(C3COC(c4c(Cl)cncc4Cl)=N3)cc2)cc1 (stereo not drawn) [Compound 35]
pest or weed control at 400 ppm [1, 6]: 90 to 100%
pest or weed control at 50 ppm [2, 7]: < 50%
pest or weed control at 400 ppm [3, 8]: 90 to 100%

Clc1cncc(Cl)c1C1=NC(c2ccc(I)cc2)CO1 (stereo not drawn) [Compound 11, 2-(3,5-dichloro-4-pyridinyl)-4-(4-iodophenyl)oxazoline]
pest or weed control at 200 ppm [5]: 90 to 100%
pest or weed control at 50 ppm [2, 7]: 90 to 100%
pest or weed control [4]: 90 to 100%

Fc1ccc(C(F)(F)F)cc1-c1ccc(C2COC(c3c(Cl)cncc3Cl)=N2)cc1 (stereo not drawn) [Compound 34]
pest or weed control at 400 ppm [1, 6]: 90 to 100%
pest or weed control at 50 ppm [2, 7]: 80 to 89%
pest or weed control at 400 ppm [3, 8]: 60 to 69%

Fc1ccc(C2COC(c3c(Cl)cncc3Cl)=N2)cc1 (stereo not drawn) [Compound 3]
pest or weed control at 200 ppm [5]: 80 to 89%
pest or weed control at 50 ppm [2, 7]: 80 to 89%
